Measurements reported in US20050042236A1, “Plant extract active as an immunostimulating agent” (priority 2001, published 2005).

System: EA-specific antibodies
Test: Production of EA-specific antibodies in mice (Table 2)
Assay type: in vivo
Conditions: EA 50 μg, BaBb/c mice, preparation 20 μg intraperitoneal
Description: Erythrocytes of defibrinated sheep blood were washed three times by centrifugation (1000 rpm, 10 m)in 50-fold volume of Hanks' solution, and were then re-suspended in the same solution. Mice were immunised intraperitoneally with 2 ml SE, 200 μg BSA or 50 μg EA. The latter two antigens were injected twice, with a 2-4 week interval between immunisations.
The appropriate amount of APG was dissolved in Hank's solution or in physiological saline, 2-3 hours prior to use. APG was administered to mice in doses of between 1 and 1000 μg. When. mice were immunised with BSA, EA or SE, APG was administered simultaneously with the antigen.
The intensity of the immune response in mice which were immunised with SE was determined according to the number of antibody-forming cells (AFC), detected in the spleen cell suspensions using the method of Jerne and Nordin (1963). AFC were detected 4-5 days following immunisation. Presence of antibodies specific to EA or BSA in blood serum of mice was detected using a solid-phase enzyme-immunoassay (EIA). Isotype of antibodies specific to BSA was determined by EIA using secondary rabbit antibodies specific to mouse IgM, IgG1, IgG2a, IgG2b or IgG3.
The lipopeptide was Pam3Cys-Ser-Lys4 a well-known immunoadjuvant.

Pam3Cys-Ser-Lys4 [lipopeptide] was tested, and the “Serum Titer of EA-specific Antibodies” value was 20,000.
